Measurements taken from patent US20250188032A1, “NITROGEN-CONTAINING HETEROCYCLIC COMPOUNDS AND USES THEREOF” (BNH RESEARCH CO., LTD., priority 2022, published 2025).

Assays:
[1] = test system: HDAC4, BDNF and GluN2B expression in C57BL/6J mice cortex; assay: Western blotting of HDAC4, BDNF and GluN2B in mouse cortical tissue after administration; type: in vivo
Method: For preparation of thalamocortical (TC) slices, 9- to 10-week-old male C57BL/6J rodents (mice) were anesthetized with isoflurane. Then, the brains were rapidly cooled by transcardial perfusion with ice-cold sucrose-artificial cerebrospinal fluid (aCSF). The brains were removed and placed in ice-cold sucrose aCSF. Paracoronal slices were prepared at a 50° angle to the midline on a ramp at an angle of 10°. The slices were then incubated in aCSF for 30 minutes at 35° C. to recover.
Subsequently, the slices were incubated in aCSF for 1 to 4 hours at room temperature (23 to 25° C.) before being placed in the recording chamber for experiment. Standard aCSF contains saturated with 95% O2/5% CO2.
All electrophysiological experiments were conducted at 27 to 29° C. Rodent (mice) was perfused with […] a sucrose-based aCSF solution (4° C.) using gravity. The brain of the rodent (mice) was removed and cut into 400 urn at a 50° angle (mouse at a 55° angle) to attach the cut portion to the vibratome disc to be the bottom. Brain slice was incubated in Incubate aCSF solution at 35° C. for 30 minutes or Incubate aCSF solution at RT for 1 hour. Cortical tissue from mice was prepared according to protocol above then was homogenized and lysed for protein extraction. The protein lysate was prepared from the tissue with NP40(FNN0021, Invitrogen) protein lysis buffer containing protease & […] according to the manufacturer's instruction. Protein concentrations were determined using the BCA Protein Assay Kit (Pierce Biotechnology) with bovine serum albumin as a standard. Equal amounts of proteins (20 μg per lane) were separated by electrophoresis on 8% or 12% SDS-polyacrylamide gel, followed by blotting onto PVDF membranes (GE Healthcare). To block nonspecific binding, the membranes were incubated for 1 h at room temperature in 5% non-fat dry milk in PBST (150 mM NaCl, 50 mM Tris, pH 7.4, 0.05% Tween 20). The following antibodies were incubated overnight at 4° C. in 2% blocking solution: Anti-HDAC4 (SAB4300413, Sigma-Aldrich), Anti-BDNF (ANT-010, Alomone Las), Anti-NMDAR2B (ab65783, abcam plc). Following the incubation with antibodies and several rinses in PBST, the membranes were incubated for 1 h with the mouse anti-rabbit IgG-HRP conjugated secondary anti-bodies (sc-2357, Santa Cruz). Each blot was subsequently re-probed with anti-β-actin antibody (sc-47778, Santa Cruz). Housekeeping protein β actin was detected as a normalization control. Antibodies used for methods described herein are as follows: […]

[2] = test system: HDAC4, BDNF and GluN2B expression in primary cultured cortical neurons; assay: Expression of HDAC4, BDNF and GluN2B in primary cultured cortical neurons; type: cell-based, mouse
Method: Meanwhile, primary cortical neuron cells were isolated from cerebral cortices of 18-day-old mouse fetuses, incubated in prep media (composition (mM). NaCl 107.5. NaH2PO4 1, NaHCO333.5, glucose 11, HEPS 1%, penicillin-streptomycin 1%) containing 0.25% trypsin and DNase1 for 30 minutes, dissociated into single cells, and seeded. Primary cortical neuron cells were grown in Neurobasal medium supplemented with 1% (v/v) B27, 1% penicillin (100 U/mL), streptomycin ([…]), and 1% Glutamax. Cells were maintained in a humidified atmosphere of 95% air and 5% CO2 at 37° C. Drug efficacy was evaluated after culturing primary cortical neuron cells for 14 days.
The amount of GluN2B reacted with the compound of the present disclosure was measured using Western blot. The fetal cerebral cortex was extracted from mice at 17 days of gestation, dissociated into single cells, cultured for 13 days, and treated with BnH drugs for 24 hours. The drug-treated cells were subjected to protein lysate preparation using RIPA protein lysis buffer containing protease and phosphatase inhibitors. The protein concentration was determined using a BCA protein assay kit (Pierce Biotechnology) using bovine serum albumin as a standard. Equal amounts of protein (20 μg per lane) were separated by electrophoresis on SDS-polyacrylamide gels at 90 V for 2 hours, then transferred from the SDS-polyacrylamide gel to PVDF membrane at 100 V for 1 hour. Then, primary reaction with GluN2B antibody (ab65783, Abcam) was performed at 4° C. for 1 day, washed three times at 10-minutes intervals with 1×PBT, and secondary reaction was performed with anti-mouse antibody (sc-2357, Santa Cruz) for 1 hour, followed by washing three times at 10-minutes intervals with 1×PBT. Western blotting was performed as described above to confirm GluN2B protein expression. Subsequently, each blot was re-probed using anti-β-actin antibody (sc-47778, Santa Cruz). Housekeeping protein β-actin was detected as a normalization control.

SH-SY5Y cells = assay: Cytotoxicity test (CCK-8 cell viability) in SH-SY5Y cells; type: cell-based, human; settings: 0, 0.1, 1, 10, 100 μM
Method: Human undifferentiated neuroblastoma cell line SH-SY5Y and human embryonic kidney cell line (HEK)-293T were purchased from Korean Cell Line Bank (Korea) and Takara (Japan), respectively. Cells were grown in HyClone Minimal Essential Medium (MEM) and Dulbecco's Modified Eagle Medium (DMEM), respectively, supplemented with 10% (v/v) fetal bovine serum (FBS), penicillin (100 U/mL), and streptomycin ([…]). Cells were maintained in a humidified atmosphere of 95% air and 5% CO2 at 37° C. Cells were passaged 10 times at maximum. Cells were dissociated using 0.05% trypsin-EDTA solution and the cells were seeded in new culture dishes for maintenance.
To examine the cytotoxicity of compounds described herein in human cell lines, SH-SY5Y and 293T cells were used. […] Finally, 10 μL of CCK-8 reagent (Dojindo Laboratories, Rockville, MD) was added to each well, and after incubation at 37° C. for 3 minutes, the OD at 450 nm was measured using a multifunction microplate reader (Tecan Infinite M200 Pro). These measurements were compared to that of a control and expressed as a percentage of the control to calculate cell viability. The IC50 value was calculated using SPSS software. To do this, the absorbance of the blank wells with only growth medium is subtracted from the values or the wells with cells. […]

[3] = primary cultured cortical neurons
[4] = oral, 1 mg/kg, 8-week-old C57BL/6J mice, sacrificed 2 days later, vs vehicle
[5] = 1 μM, 24-hour treatment, cultured primary cortical neurons (DIV 14)

SMILES	HDAC4 protein expression in mice barrel cortex ([1]; intraperitoneal administration)	HDAC4 protein expression in mice barrel cortex ([1]; oral administration)	Duration of inhibitory effect on HDAC4 protein expression ([1]; oral and intraperitoneal administration, mice barrel cortex) [days]	BDNF expression [2, 3]	GluN2B expression [2, 3]	HDAC4 protein expression [2, 3]	Change in cell viability (SH-SY5Y cells)	BDNF expression [1, 4]	GluN2B expression [1, 4]	HDAC4 expression [1, 4]	GluN2B expression ([1]; oral, 1 mg/kg, 13-month-old C57BL/6J mice, sacrificed 2 days later, vs vehicle)	BDNF expression [2, 5]	GluN2B expression [2, 5]
CC1CCC(C(=O)O)CN1C(=O)Cc1ccc(F)cc1Cl (racemic) [BnH12001, 1-(2-(2-chloro-4-fluorophenyl)acetyl)-6-methylpiperidine-3-carboxylic acid]	significantly suppressed	significantly suppressed	≥ 9	significantly increased	significantly increased	significantly suppressed	no significant change in cell viability						
C[C@@H]1CC[C@H](C(=O)O)CN1C(=O)Cc1ccc(F)cc1Cl [BnH12001 enantiomer (3S,6R, 98%<), (3S,6R)-1-(2-(2-chloro-4-fluorophenyl)acetyl)-6-methylpiperidine-3-carboxylic acid]								significantly increased	significantly increased	effectively degraded	significantly increased	increased	increased
